Experimental data: patent US20120171123A1, “USES AND COMPOSITIONS FOR TREATMENT OF RHEUMATOID ARTHRITIS” (priority 2006, published 2012)

Tests used:
[1] = system: patients with active rheumatoid arthritis; assay: Study A: HAQ physical function; type: in vivo, human
From the text: Efficacy of a treatment for rheumatoid arthritis can be determined by using the health assessment questionnaire (HAQ). Health Assessment Questionaire (HAQ) is a standardized disability questionnaire that was initially developed for use in rheumatoid arthritis (RA). […] The HAQ is a validated questionnaire designed to assess patients' ability to perform activities of daily living, particularly in adult arthritics. The instrument consists of the HAQ Disability Index (20 items), Pain Scale (1 item), and Global Health Status (1 item) that measure disability/physical functioning and quality of life (see Fries (1982) et al. J Rheumatol 9:789).
Improvements in physical function were determined using the HAQ score.
To evaluate the impact of prior biological therapies, patients with moderate to severe RA enrolled at 450 sites in 11 European countries plus Australia (Study A). Patients with moderate to severe RA and an inadequate response to prior DMARD therapies were enrolled in a 12-week open-label study with an optional extension phase. […] Efficacy parameters included ACR20, ACR50, ACR70, EULAR Response, HAQ, tender and swollen joint count (TJC28/SJC28), and DAS28.
Patients with long-standing, moderate to severe RA were enrolled in Study A at 450 sites in 12 different countries. The study design for Study A is outlined in FIG. 21. […] Previous treatment with other biologics was allowed up to 8 weeks before enrollment. Patients met the following inclusion criteria: Age ≧18 years; RA (defined by American College of Rheumatology criteria) for ≧3 months; active, moderate to severe RA (Disease Activity Score (DAS28)≧3.2); unsatisfactory response or intolerance to at least one prior DMARD, including biologics. Efficacy assessments were performed at weeks 0 (baseline), 2, 6, and 12. The key outcomes measured were: change in DAS28; EULAR responses; ACR20, ACR50, ACR70 responses; changes in Tender Joint Count (TJC) and Swollen Joint Count (SJC); and change in Health Assessment Questionnaire (HAQ).
Moderately to severely active RA was defined by Disease Activity Score 28 (DAS28)≧3.2 at baseline. Unsatisfactory response or intolerance to at least one prior DMARD was required for enrollment in Study A. A 12-week study period was followed by an optional extension phase with efficacy and routine safety evaluations performed at Weeks 2, 6, 12, 20, and every 8 weeks thereafter. […] Key efficacy parameters include ACR20, 50, and 70 responses; EULAR responses; and changes in DAS28, Tender Joint Count (TJC), Swollen Joint Count (SJC), C-Reactive Protein (CRP), and Health Assessment Questionnaire Disability Index (HAQ). […] Adverse events (AE) were collected throughout the entire treatment period, also beyond Week 52.

[2] = system: patients with severe RA who had failed MTX; assay: Study 2 / Study 3 OLE (adalimumab monotherapy): SF-36; type: in vivo, human; conditions: within 26 weeks
Description: In addition to the SF-36 instrument, the Health Utilities Index Mark 3 (HUI3) and the Functional Assessment of Chronic Illness Therapy-Fatigue (FACIT-F) questionnaires were administered at baseline, 12 weeks, and the end of the study.
The HUI3 scale is 0-1, with “1” denoting perfect health and “0” denoting death. FACIT-F scores range from 0-52, with higher scores representing less fatigue. The SF-36 includes one multi-item scale that assesses eight different dimensions of health, including physical and psychosocial components. For each dimension a value of 0-100 is given, with higher numbers representing less impairment. Changes in HUI3 of ≧0.03, in FACIT-F of ≧4 and in SF-36 of ≧4.4 (physical subscales) and ≧3.1 (mental subscales) are considered clinically meaningful.
In addition to clinical parameters, the SF-36 instrument, the Health Utilities Index Mark 3 (HUI3), and the Functional Assessment of Chronic Illness Therapy-Fatigue (FACIT-F) questionnaires were administered at baseline, and at weeks 12, 26, 50, 74, 98, 122, 146 and 170, respectively. The HUI3 scale ranges from 0-1, with “1” denoting perfect health and “0” denoting death. FACIT-F scores range from 0-52, with higher scores representing less fatigue. SF-36 scores range from 0-100 with higher scores indicating improvement in HRQoL. […]

[3] = system: patients with moderate to severe rheumatoid arthritis; assay: Study C: DAS28; type: in vivo, human
Description: The Canadian Adalimumab Clinical Trial (Study C) was an open-label, multi-center, Phase IIIb study conducted in Canada. […] Efficacy and safety were assessed at baseline, 4, 8, and 12 weeks. Efficacy assessments included tender joint count (TJC 0-28), swollen joint count (SJC 0-28), Disease Activity Score 28 (DAS28), Health Assessment Questionnaire (HAQ), and EULAR response. This was a preliminary analysis of 236 patients. The sample size for each outcome variable is based on the data available at the time of the analysis. The data from this preliminary analysis were compared with the Week 12 data from Study A (N=2008).

[4] = system: patients with active rheumatoid arthritis; conditions: Study A (N=2008), 12 weeks; cited from earlier work
[5] = 12 weeks, all pts in Study A (n=4241)
[6] = 12 weeks, prior biologic: Any (n=688)
[7] = 12 weeks, prior biologic: ETA (n=114)
[8] = 12 weeks, prior biologic: ETA + INF (n=78)
[9] = 12 weeks, prior biologic: INF (n=358)
[10] = 12 weeks, prior biologic: None (n=3553)

Substance: adalimumab: human anti-TNF mAb (HUMIRA, Abbott Laboratories), described in U.S. Pat. No. 6,090,382 as D2E7
- improvement in HAQ score ([1]; 12 weeks, N=2008 analysis): −0.49
- patients achieving HAQ<0.5 ([1]; 12 weeks, N=2008 analysis): 25%
- Change in HAQ, mean change from baseline [1, 5]: −0.49
- HAQ < 0.5 [1, 5]: 24%
- Change in HAQ, mean change from baseline [1, 6]: −0.43
- HAQ < 0.5 [1, 6]: 13%
- Change in HAQ, mean change from baseline [1, 7]: −0.36
- HAQ < 0.5 [1, 7]: 9%
- Change in HAQ, mean change from baseline [1, 8]: −0.35
- HAQ < 0.5 [1, 8]: 13%
- Change in HAQ, mean change from baseline [1, 9]: −0.49
- HAQ < 0.5 [1, 9]: 14%
- Change in HAQ, mean change from baseline [1, 10]: −0.5
- HAQ < 0.5 [1, 10]: 26%
- Change in HAQ, mean change from baseline ([1]; Week 12, concomitant LEF only (n=557)): −0.47
- Change in HAQ, mean change from baseline ([1]; Week 12, concomitant MTX + LEF (n=123)): −0.53
- Change in HAQ, mean change from baseline ([1]; Week 12, concomitant MTX + SSZ): −0.53
- Change in HAQ, mean change from baseline ([1]; Week 12, concomitant MTX only (n=1561)): −0.52
- Change in HAQ, mean change from baseline ([1]; Week 12, concomitant QC/HQC (n=85)): −0.63
- Change in HAQ, mean change from baseline ([1]; Week 12, concomitant SSZ only (n=89)): −0.47
- Change in HAQ, mean change from baseline ([1]; Wk 12, concomitant MTX Im 15 mg (N=76), no other DMARD): −0.55
- Change in HAQ, mean change from baseline ([1]; Wk 12, concomitant MTX Iv 15 mg (N=23), no other DMARD): −0.54
- Change in HAQ, mean change from baseline ([1]; Wk 12, concomitant MTX Sc 15 mg (N=37), no other DMARD): −0.53
- Change in HAQ, mean change from baseline ([1]; Wk 12, concomitant MTX oral 15 mg (N=405), no other DMARD): −0.50
- Change in HAQ, mean change from baseline ([1]; Wk 12, concomitant MTX oral ≦7.5 (N=127), no other DMARD): −0.56
- Change in HAQ, mean change from baseline ([1]; Wk 12, concomitant MTX oral ≧20 mg (N=216), no other DMARD): −0.52
- mean change in HAQ score from baseline ([1]; week 2): −0.32
- mean change in HAQ score from baseline ([1]; week 6): −0.44
- mean change in HAQ score from baseline ([1]; week 12): −0.51
- patients achieving HAQ<0.5 ([1]; week 12): 5%
- patients with a change in HAQ≧−0.22 (MCID) ([1]; week 12): 70%
- change in HAQ ([1]; week 12 (n=6235)): −0.52
- patients achieving HAQ<0.5 ([1]; week 12, listed as Adalimumab): 25%
- change in HAQ ([1]; week 28 (n=4119)): −0.56
- change in HAQ ([1]; week 52 (n=1251)): −0.57
- SF-36 scores of all subscales/domains [2]: clinically meaningful improvements
- DAS28 (mean), change from baseline ([3]; Study C, 12 weeks, preliminary analysis): −2.1 (116)
- mean decrease in DAS28 score ([3]; week 12): −2.1
- patients achieving DAS28<2.6 ([3]; week 12): 10%
- reduction in DAS28 score ([3]; week 12): 32%
- mean DAS28 ([3]; week 12 (baseline 6.5)): 4.4
- HAQ (mean), change from baseline [4]: −0.49
